pIC50: −log10 of the molar value.
Key:
Assay in all cases: Kinase panel enzymatic inhibition assay (Nanosyn)
Type in all cases: biochemical
HGK = molecular target: T1, HGK (Homo sapiens, UniProt O95819); settings: compound 5 μM; ATP at Km; 30-minute pre-incubation
T1 construct: purchased Nanosyn (contract screening)
In short: (§1)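 Inhibition is expressed as percent at 5 μM or as IC50, with ATP set at the Km of each kinase and a 30-minute compound pre-incubation. Detection used an accepted enzymatic format such as Caliper mobility shift.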

KIT = molecular target: T2, KIT (Homo sapiens, UniProt P10721); settings: compound 5 μM; ATP at Km; 30-minute pre-incubation
T2 construct: purchased Nanosyn (contract screening)
In short: as §1

PDGFRa = molecular target: T3, PDGFRa (Homo sapiens, UniProt P16234); settings: compound 5 μM; ATP at Km; 30-minute pre-incubation
T3 construct: Nanosyn (contract laboratory that ran the panel)
T3 sequence (P16234 24-1089): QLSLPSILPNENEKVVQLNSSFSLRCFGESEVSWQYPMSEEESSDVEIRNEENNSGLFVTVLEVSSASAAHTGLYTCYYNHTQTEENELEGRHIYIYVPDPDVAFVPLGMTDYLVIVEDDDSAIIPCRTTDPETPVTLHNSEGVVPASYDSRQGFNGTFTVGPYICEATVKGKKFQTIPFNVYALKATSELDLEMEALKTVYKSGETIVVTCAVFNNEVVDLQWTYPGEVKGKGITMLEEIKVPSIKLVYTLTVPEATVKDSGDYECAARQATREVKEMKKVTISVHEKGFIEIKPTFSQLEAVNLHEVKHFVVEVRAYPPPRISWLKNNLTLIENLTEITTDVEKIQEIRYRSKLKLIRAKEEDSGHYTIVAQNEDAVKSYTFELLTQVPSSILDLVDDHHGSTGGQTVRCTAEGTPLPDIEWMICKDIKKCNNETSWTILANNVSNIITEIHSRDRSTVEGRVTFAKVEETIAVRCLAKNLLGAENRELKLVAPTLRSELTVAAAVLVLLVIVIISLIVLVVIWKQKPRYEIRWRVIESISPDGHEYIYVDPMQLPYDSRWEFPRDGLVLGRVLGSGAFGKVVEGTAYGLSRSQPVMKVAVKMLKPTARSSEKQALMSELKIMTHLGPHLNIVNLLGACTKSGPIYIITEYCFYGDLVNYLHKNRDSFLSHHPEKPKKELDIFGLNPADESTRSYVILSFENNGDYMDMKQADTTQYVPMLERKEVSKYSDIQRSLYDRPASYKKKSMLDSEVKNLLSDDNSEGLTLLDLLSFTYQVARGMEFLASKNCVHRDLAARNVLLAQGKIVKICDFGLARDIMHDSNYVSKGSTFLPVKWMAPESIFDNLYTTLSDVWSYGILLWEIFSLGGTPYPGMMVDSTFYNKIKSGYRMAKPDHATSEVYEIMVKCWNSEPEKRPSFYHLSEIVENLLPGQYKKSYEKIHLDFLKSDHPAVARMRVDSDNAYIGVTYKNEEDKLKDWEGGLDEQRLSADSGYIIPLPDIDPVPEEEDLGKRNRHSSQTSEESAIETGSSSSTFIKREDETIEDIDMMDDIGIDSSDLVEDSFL
In short: as §1

PKCb1 = molecular target: T4, PKCb1 (Homo sapiens, UniProt P05771); settings: compound 5 μM; ATP at Km; 30-minute pre-incubation
T4 construct: Nanosyn (contract laboratory that ran the panel)
T4 sequence (P05771 whole entry): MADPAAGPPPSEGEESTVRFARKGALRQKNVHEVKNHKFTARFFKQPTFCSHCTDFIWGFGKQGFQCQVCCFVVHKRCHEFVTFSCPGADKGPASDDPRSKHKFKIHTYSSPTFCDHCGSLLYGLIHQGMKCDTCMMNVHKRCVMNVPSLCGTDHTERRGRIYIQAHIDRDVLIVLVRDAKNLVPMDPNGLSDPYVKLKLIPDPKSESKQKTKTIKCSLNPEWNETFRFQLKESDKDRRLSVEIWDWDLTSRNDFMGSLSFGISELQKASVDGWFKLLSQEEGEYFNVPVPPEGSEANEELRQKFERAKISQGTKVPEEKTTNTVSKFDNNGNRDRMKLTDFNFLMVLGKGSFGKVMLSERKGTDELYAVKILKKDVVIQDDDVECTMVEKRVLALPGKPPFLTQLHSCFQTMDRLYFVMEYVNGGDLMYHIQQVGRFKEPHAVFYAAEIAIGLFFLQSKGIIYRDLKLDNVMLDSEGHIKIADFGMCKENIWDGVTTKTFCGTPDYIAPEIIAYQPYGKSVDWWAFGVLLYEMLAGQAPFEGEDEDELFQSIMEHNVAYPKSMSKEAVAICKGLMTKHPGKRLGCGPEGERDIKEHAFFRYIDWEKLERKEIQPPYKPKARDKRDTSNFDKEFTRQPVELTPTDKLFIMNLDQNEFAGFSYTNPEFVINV
In short: as §1

CLK4 = molecular target: T5, CLK4 (Homo sapiens, UniProt Q9HAZ1); settings: compound 5 μM; ATP at Km; 30-minute pre-incubation
T5 construct: purchased Nanosyn (contract screening)
T5 sequence (Q9HAZ1 whole entry): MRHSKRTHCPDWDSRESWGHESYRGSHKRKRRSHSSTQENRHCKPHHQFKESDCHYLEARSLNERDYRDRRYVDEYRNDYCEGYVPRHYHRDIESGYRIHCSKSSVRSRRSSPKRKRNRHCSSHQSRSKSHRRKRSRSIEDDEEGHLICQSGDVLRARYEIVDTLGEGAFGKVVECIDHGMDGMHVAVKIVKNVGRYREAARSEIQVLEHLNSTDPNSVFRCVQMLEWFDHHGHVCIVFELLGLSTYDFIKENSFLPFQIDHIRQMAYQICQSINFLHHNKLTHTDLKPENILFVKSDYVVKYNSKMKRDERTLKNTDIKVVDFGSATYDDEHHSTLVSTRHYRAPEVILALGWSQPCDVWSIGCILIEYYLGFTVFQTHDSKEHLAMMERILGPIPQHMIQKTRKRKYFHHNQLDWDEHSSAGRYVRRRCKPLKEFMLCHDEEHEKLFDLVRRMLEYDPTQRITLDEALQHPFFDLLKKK
In short: as §1

HCK = molecular target: T6, HCK (Homo sapiens, UniProt P08631); settings: compound 5 μM; ATP at Km; 30-minute pre-incubation
T6 construct: purchased Nanosyn (contract screening)
In short: as §1

BRK = molecular target: T7, BRK (Homo sapiens, UniProt Q13882); settings: compound 5 μM; ATP at Km; 30-minute pre-incubation
T7 construct: purchased Nanosyn (contract screening)
T7 sequence (Q13882 whole entry): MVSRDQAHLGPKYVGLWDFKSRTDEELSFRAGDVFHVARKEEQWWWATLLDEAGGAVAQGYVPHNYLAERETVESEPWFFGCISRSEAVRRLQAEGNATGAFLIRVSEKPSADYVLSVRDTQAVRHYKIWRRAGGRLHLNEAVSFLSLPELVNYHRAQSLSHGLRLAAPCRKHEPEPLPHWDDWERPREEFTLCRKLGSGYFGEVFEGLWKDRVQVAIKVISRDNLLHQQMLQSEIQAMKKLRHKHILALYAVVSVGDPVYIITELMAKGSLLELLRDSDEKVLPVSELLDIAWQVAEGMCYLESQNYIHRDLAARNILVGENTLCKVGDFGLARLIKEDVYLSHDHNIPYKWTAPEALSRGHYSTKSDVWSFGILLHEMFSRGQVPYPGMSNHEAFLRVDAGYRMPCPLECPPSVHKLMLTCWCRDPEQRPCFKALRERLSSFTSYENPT
In short: as §1

Abl1 = molecular target: T8, Abl1 (Homo sapiens, UniProt P00519); settings: compound 5 μM; ATP at Km; 30-minute pre-incubation
T8 construct: purchased Nanosyn (contract screening)
In short: as §1

YES = molecular target: T9, YES (Homo sapiens, UniProt P07947); settings: compound 5 μM; ATP at Km; 30-minute pre-incubation
T9 construct: Nanosyn (contract laboratory that ran the panel)
In short: as §1

CSF1R = molecular target: T10, CSF1R (Homo sapiens, UniProt P07333); settings: compound 5 μM; ATP at Km; 30-minute pre-incubation
T10 construct: purchased Nanosyn (contract screening)
T10 sequence (P07333 20-972): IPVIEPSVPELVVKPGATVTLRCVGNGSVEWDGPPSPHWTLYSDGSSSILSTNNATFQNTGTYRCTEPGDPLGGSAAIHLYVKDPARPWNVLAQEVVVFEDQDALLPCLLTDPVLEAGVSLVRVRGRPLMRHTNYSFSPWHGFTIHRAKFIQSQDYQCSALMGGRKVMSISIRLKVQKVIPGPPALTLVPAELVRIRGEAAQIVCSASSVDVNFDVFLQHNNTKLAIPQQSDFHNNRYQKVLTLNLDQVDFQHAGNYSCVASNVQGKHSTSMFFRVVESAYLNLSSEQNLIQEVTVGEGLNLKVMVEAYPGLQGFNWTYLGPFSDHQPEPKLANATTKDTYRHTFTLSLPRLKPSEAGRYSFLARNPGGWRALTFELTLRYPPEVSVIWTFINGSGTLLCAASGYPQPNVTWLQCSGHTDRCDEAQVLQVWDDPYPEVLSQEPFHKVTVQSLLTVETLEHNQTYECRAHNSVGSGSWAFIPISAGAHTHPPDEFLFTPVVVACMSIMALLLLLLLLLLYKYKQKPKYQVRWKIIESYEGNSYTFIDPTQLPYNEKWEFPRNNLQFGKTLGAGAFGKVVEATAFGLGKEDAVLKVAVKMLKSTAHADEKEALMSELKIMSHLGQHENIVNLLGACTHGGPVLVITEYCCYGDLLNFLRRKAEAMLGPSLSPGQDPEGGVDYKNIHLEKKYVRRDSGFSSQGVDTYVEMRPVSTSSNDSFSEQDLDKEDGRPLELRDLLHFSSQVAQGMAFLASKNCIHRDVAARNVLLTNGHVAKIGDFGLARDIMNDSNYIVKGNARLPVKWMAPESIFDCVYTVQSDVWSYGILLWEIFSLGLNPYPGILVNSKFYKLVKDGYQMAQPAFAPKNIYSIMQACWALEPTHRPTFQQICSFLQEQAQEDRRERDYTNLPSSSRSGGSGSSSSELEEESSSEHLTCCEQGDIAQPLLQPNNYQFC
In short: as §1

DDR1 = molecular target: T11, DDR1 (Homo sapiens, UniProt Q08345); settings: ATP at Km, 30-minute pre-incubation; for inhibition at 5 µM: compound 5 μM; for pIC50: read-out: kinase inhibition in terms of IC50, DDR1
T11 construct: purchased Nanosyn (contract screening)
T11 sequence (Q08345 19-913): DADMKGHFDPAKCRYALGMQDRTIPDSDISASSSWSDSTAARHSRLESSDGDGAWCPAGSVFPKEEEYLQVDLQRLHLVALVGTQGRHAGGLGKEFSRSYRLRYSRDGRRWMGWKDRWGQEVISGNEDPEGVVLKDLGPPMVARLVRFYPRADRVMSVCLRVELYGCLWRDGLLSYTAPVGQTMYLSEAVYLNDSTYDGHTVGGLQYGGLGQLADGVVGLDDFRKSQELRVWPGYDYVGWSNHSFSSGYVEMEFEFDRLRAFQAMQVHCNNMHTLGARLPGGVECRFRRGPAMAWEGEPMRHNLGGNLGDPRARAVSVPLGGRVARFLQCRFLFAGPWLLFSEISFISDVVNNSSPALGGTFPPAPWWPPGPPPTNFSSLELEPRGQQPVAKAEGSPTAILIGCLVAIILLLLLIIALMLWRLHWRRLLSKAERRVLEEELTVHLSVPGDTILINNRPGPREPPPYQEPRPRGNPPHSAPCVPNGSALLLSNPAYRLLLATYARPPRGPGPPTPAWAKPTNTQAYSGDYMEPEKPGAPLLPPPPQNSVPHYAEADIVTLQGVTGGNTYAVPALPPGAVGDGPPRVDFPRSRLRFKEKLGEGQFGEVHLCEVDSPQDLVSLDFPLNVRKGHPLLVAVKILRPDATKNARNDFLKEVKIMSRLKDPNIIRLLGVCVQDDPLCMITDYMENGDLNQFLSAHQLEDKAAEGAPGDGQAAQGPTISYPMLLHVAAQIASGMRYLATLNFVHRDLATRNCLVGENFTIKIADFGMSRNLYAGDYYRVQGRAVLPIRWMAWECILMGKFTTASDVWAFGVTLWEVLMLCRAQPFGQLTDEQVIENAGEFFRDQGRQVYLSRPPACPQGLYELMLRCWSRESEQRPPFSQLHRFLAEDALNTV
In short: as §1

CSK = molecular target: T12, CSK (Homo sapiens, UniProt P41240); settings: compound 5 μM; ATP at Km; 30-minute pre-incubation
T12 construct: purchased Nanosyn (contract screening)
In short: as §1

TAOK2 = molecular target: T13, TAOK2 (Homo sapiens, UniProt Q9UL54); settings: compound 5 μM; ATP at Km; 30-minute pre-incubation
T13 construct: Nanosyn (contract laboratory that ran the panel)
T13 sequence (Q9UL54 1-1235): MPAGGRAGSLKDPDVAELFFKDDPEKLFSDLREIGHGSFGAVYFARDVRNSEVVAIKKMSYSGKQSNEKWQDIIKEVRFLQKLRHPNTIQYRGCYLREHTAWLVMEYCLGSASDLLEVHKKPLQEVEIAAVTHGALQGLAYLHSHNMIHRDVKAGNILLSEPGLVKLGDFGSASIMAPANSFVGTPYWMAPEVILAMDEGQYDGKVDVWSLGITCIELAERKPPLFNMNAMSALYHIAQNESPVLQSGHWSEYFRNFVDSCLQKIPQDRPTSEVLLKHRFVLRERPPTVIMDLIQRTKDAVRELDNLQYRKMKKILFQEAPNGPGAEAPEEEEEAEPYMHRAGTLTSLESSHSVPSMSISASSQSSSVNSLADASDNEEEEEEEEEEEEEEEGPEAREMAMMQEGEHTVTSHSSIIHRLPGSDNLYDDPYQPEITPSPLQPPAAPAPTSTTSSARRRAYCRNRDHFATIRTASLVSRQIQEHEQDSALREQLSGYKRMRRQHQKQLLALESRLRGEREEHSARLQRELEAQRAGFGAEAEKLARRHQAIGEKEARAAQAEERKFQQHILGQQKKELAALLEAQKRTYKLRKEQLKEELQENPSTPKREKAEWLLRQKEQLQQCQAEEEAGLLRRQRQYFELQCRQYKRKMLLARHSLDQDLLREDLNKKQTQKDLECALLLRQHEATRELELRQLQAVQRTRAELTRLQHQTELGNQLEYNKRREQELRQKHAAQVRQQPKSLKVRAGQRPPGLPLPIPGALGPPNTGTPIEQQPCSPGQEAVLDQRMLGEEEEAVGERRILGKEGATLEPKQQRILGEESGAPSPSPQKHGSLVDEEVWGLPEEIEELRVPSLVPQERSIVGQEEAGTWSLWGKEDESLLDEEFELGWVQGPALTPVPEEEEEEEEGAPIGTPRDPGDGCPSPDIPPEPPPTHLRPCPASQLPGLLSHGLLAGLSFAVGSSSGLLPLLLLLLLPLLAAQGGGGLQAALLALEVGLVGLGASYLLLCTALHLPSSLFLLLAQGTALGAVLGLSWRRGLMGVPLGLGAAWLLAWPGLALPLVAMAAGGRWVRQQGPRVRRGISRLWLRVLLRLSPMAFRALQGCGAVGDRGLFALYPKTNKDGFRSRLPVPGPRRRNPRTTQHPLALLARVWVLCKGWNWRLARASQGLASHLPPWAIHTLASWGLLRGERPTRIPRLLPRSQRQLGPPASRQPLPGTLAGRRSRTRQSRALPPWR
In short: as §1

p38a = molecular target: T14, p38a (Homo sapiens, UniProt Q16539); settings: compound 5 μM; ATP at Km; 30-minute pre-incubation
T14 construct: Nanosyn (contract laboratory that ran the panel)
In short: as §1

LCK = molecular target: T15, LCK (Homo sapiens, UniProt P06239); settings: ATP at Km, 30-minute pre-incubation; for inhibition at 5 µM: compound 5 μM; for pIC50: read-out: kinase inhibition in terms of IC50, LCK
T15 construct: purchased Nanosyn (contract screening)
T15 sequence (P06239 whole entry): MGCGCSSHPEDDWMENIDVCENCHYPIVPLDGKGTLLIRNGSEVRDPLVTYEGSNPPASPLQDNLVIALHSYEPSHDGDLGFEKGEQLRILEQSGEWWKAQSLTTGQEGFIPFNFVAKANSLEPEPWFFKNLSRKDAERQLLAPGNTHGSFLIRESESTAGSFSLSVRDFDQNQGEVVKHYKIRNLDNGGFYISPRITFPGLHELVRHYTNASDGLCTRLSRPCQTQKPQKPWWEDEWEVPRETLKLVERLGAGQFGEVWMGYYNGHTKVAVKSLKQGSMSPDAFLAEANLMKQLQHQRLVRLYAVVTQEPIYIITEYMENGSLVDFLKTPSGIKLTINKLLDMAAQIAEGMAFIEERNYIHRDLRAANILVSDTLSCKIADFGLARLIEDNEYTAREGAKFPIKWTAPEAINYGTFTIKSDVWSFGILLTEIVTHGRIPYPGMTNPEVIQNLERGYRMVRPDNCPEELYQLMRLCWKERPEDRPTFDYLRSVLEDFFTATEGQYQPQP
In short: as §1

SRC = molecular target: T16, SRC (Homo sapiens, UniProt P12931); settings: compound 5 μM; ATP at Km; 30-minute pre-incubation
T16 construct: Nanosyn (contract laboratory that ran the panel)
In short: as §1

Structure (SMILES)	inhibition at 5 µM (HGK) [%]	inhibition at 5 µM (KIT) [%]	inhibition at 5 µM (PDGFRa) [%]	inhibition at 5 µM (PKCb1) [%]	inhibition at 5 µM (CLK4) [%]	inhibition at 5 µM (HCK) [%]	inhibition at 5 µM (BRK) [%]	inhibition at 5 µM (Abl1) [%]	inhibition at 5 µM (YES) [%]	inhibition at 5 µM (CSF1R) [%]	inhibition at 5 µM (DDR1) [%]	inhibition at 5 µM (CSK) [%]	inhibition at 5 µM (TAOK2) [%]	inhibition at 5 µM (p38a) [%]	inhibition at 5 µM (LCK) [%]	inhibition at 5 µM (SRC) [%]	pIC50 (DDR1)	pIC50 (LCK)
Cc1ccc(NC(=O)c2cc([S+](C)[O-])n(-c3ccc(F)cc3)n2)cc1-c1cc(N2CCOCC2)c(=O)n(C)c1 (stereo not drawn) [Ex11, 1-(4-fluorophenyl)-N-(4-methyl-3-(1-methyl-5-morpholino-6-oxo-1,6-dihydropyridin-3-yl)phenyl)-5-(methylsulfinyl)-1H-pyrazole-3-carboxamide]	< 79	< 79	< 79	< 79	< 79	< 79	< 79	< 79	< 79	< 79	< 79	< 79	< 79	≥ 95	< 79	< 79	–	–
CNC(=O)c1cc(Oc2ccc(NC(=O)c3cc(S(C)(=O)=O)n(-c4ccc(F)cc4)n3)c(F)c2)ccn1 [Ex17, 4-(3-fluoro-4-(1-(4-fluorophenyl)-5-(methylsulfonyl)-1H-pyrazole-3-carboxamido)phenoxy)-N-methylpicolinamide]	< 79	< 79	< 79	< 79	< 79	< 79	≥ 95	< 79	< 79	< 79	80 to 89	< 79	< 79	< 79	< 79	< 79	–	–
COc1cc2nccc(Oc3ccc(NC(=O)c4cc(S(C)(=O)=O)n(-c5ccc(F)cc5)n4)cc3F)c2cc1OC [Ex73, N-(4-((6,7-dimethoxyquinolin-4-yl)oxy)-3-fluorophenyl)-1-(4-fluorophenyl)-5-(methylsulfonyl)-1H-pyrazole-3-carboxamide]	–	–	–	–	–	–	–	–	–	–	–	–	–	–	–	–	> 6.30	6.00 to 6.30
CNC(=O)c1cc(Oc2ccc(F)c(NC(=O)c3cc([S+](C)[O-])n(-c4ccc(F)cc4)n3)c2)ccn1 (stereo not drawn) [Ex7, 4-(4-fluoro-3-(1-(4-fluorophenyl)-5-(methylsulfinyl)-1H-pyrazole-3-carboxamido)phenoxy)-N-methylpicolinamide]	< 79	< 79	< 79	< 79	< 79	< 79	< 79	< 79	< 79	< 79	< 79	< 79	< 79	< 79	< 79	< 79	–	–
COc1cc2nccc(Oc3ccc(NC(=O)c4cc(S(C)(=O)=O)n(-c5ccc(F)cc5)n4)cc3)c2cc1OC [Ex72, N-(4-((6,7-dimethoxyquinolin-4-yl)oxy)phenyl)-1-(4-fluorophenyl)-5-(methylsulfonyl)-1H-pyrazole-3-carboxamide]	–	–	–	–	–	–	–	–	–	–	–	–	–	–	–	–	–	6.00 to 6.30
Cc1ccc(NC(=O)c2cc(S(C)(=O)=O)n(-c3ccc(F)cc3)n2)cc1-c1cc(OCCO)nc(N2CCOCC2)c1 [Ex9, 1-(4-fluorophenyl)-N-(3-(2-(2-hydroxyethoxy)-6-morpholinopyridin-4-yl)-4-methylphenyl)-5-(methylsulfonyl)-1H-pyrazole-3-carboxamide]	< 79	< 79	< 79	< 79	< 79	< 79	< 79	< 79	< 79	< 79	≥ 95	< 79	≥ 95	< 79	< 79	< 79	–	–
Cc1ccc(NC(=O)c2cc(S(C)(=O)=O)n(-c3ccc(F)cc3)n2)cc1C#Cc1cnc2cccnn12 [Ex14, 1-(4-fluorophenyl)-N-(3-(imidazo[1,2-b]pyridazin-3-ylethynyl)-4-methylphenyl)-5-(methylsulfonyl)-1H-pyrazole-3-carboxamide]	< 79	90 to 94	< 79	< 79	< 79	90 to 94	< 79	< 79	< 79	90 to 94	≥ 95	80 to 89	< 79	< 79	≥ 95	< 79	–	–
Cc1ccc(NC(=O)c2cc(S(C)(=O)=O)n(-c3ccc(F)cc3)n2)cc1-c1cc(N2CCOCC2)c(=O)n(C)c1 [Ex12, 1-(4-fluorophenyl)-N-(4-methyl-3-(1-methyl-5-morpholino-6-oxo-1,6-dihydropyridin-3-yl)phenyl)-5-(methylsulfonyl)-1H-pyrazole-3-carboxamide]	< 79	< 79	< 79	< 79	< 79	< 79	< 79	< 79	< 79	< 79	80 to 89	< 79	80 to 89	< 79	< 79	< 79	–	–
Cc1ccc(NC(=O)c2cc(S(C)(=O)=O)n(-c3ccc(F)cc3)n2)cc1Nc1ccc2ncn(C)c(=O)c2c1 [Ex4, 1-(4-fluorophenyl)-N-(4-methyl-3-((3-methyl-4-oxo-3,4-dihydroquinazolin-6-yl)amino)phenyl)-5-(methylsulfonyl)-1H-pyrazole-3-carboxamide]	< 79	90 to 94	< 79	< 79	< 79	< 79	< 79	< 79	< 79	< 79	< 79	< 79	< 79	80 to 89	< 79	< 79	–	–
COc1cc2nccc(Oc3ccc(NC(=O)c4cc(S(C)(=O)=O)n(-c5ccc(F)cc5)n4)c(F)c3)c2cc1OC [Ex71, N-(4-((6,7-dimethoxyquinolin-4-yl)oxy)-2-fluorophenyl)-1-(4-fluorophenyl)-5-(methylsulfonyl)-1H-pyrazole-3-carboxamide]	–	–	–	–	–	–	–	–	–	–	–	–	–	–	–	–	> 6.30	> 6.30

Reference: patent US20240400577A1, “MODULATORS OF PROTEIN KINASES” (VIBLIOME THERAPEUTICS, LLC, priority 2021, published 2024)
